Test results as given in paper PMC6100724, “Proteome‐wide analysis of phospho‐regulated PDZ domain interactions” (Molecular Systems Biology, 2018).
Values belong to the substance of their own block, whether it stands above or below them.

What was measured:
DLG1 PDZ2 = biological target: T1, DLG1 PDZ2 (Homo sapiens, UniProt Q12959); assay: Phosphomimetic ProP-PD selection with NGS; assay type: binding; conditions: mean of selections 1-3, bait DLG1 PDZ2
T1 construct: human DLG1 PDZ2 aa 311–407 in a modified pRSET vector 40; made in house; host or cells: E. coli BL21 Gold (DE3)
T1 sequence (Q12959 311-407): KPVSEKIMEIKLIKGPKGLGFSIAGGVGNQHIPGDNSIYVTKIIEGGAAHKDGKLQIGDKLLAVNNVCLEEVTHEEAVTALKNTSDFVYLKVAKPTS
Method: (§1) Phage selections were carried out for four rounds following a protocol by Huang and Sidhu (Huang & Sidhu, 2011) with minor modifications. Non‐specific binding phage was removed by pre‐selections against immobilized GST throughout the selection. The selections against the (pre‐)phosphorylated wild‐type library were performed in 50 mM HEPES (pH 7.4) and 150 mM NaCl (HBS) following the same procedure after pre‐phosphorylation of the library.
(§2) • Immobilize proteins (15 μg in 100 μl PBS) in a 96‐well MaxiSorp microtiter plate (NUNC) overnight at 4°C. • Start a 2YT culture of E. coli Omnimax supplemented with 100 μg/ml tetracycline to retain the F pilus epitope. • Block the wells with 200 μl 0.5% BSA in PBS for 2 h at 4°C. • Precipitate naïve phage library (10^11 cfu per selection) or amplified phage pool from the previous round of selection by adding one‐fifth the volume of PEG/NaCl. • Incubate on ice for 10 min, and pellet precipitated phage by centrifugation at 5,300 g for 15 min. Resuspend the phage pellet in 100 μl PBS per selection. • Add 100 μl of phage solution to the GST‐coated pre‐selection wells and incubate for 1 h. • Transfer the phage solution to the immobilized target proteins and allow it to bind for 2 h at 8°C. • Wash the plate four times with 200 μl cold wash buffer (PBS, 0.05% Tween‐20). • Elute bound phage by incubation with 100 μl log phase (0.6–0.8 OD600) E. coli Omnimax for 30 min at 37°C with shaking (200 RPM). • Add 10^12 cfu/ml M13K07 helper phage for hyperinfection of the bacteria and incubate as above for 45 min. • Transfer the bacterial culture to 10 ml 2YT supplemented with 50 μg/ml carbenicillin, 25 μg/ml kanamycin, and 300 μM IPTG and incubate overnight at 37°C while shaking. • Perform phage pool ELISA to monitor the progress of the selection as described previously (Huang & Sidhu, 2011).
(§3) The naïve library and the enriched phage pools of the third day of selection were amplified and barcoded by PCR and analyzed by NGS as described elsewhere (McLaughlin & Sidhu, 2013; Ivarsson et al, 2014). The reads were demultiplexed using the barcode sequences and filtered by discarding sequences with a Phred quality score under 30. Sequences were mapped to the original library using Bowtie (Langmead et al, 2009) with two mismatches between reads and library sequence. Nucleotide mutations leading to amino acid substitutions were subsequently removed. Cutoff values of NGS counts were assigned for each pool. PWMs were generated based on the remaining peptides (aligned on the C‐termini) using WebLogo (Crooks et al, 2004).
(§4) However, there was no significant correlation of the actual read counts (selection “strength”) and the initial representation in the library, reflecting the strong selection during phage display (wt+mimetic: P‐value: 0.49, ρ = −0.08, mimetic only: P‐value: 0.069, ρ = −0.2, wt only: P‐value: 0.12, ρ = 0.17). Consequently, the amount of reads for each binder after phage display is not a function of the amount of input reads in the naïve library and no modeling based on the input library frequencies to score the interactions is necessary. To allow for comparison between replicate selections, we used the fraction of NGS reads within a certain set, instead of the absolute number of NGS reads, as the absolute numbers differ between different NGS batches.

Scribble PDZ1 [1] = biological target: T2, Scribble PDZ1 (Homo sapiens, UniProt Q14160); assay: Phosphomimetic ProP-PD selection with NGS; assay type: binding; conditions: bait Scribble PDZ1; mean of selections 1-3
T2 construct: human Scribble PDZ1 aa 719–829 in; made in house; host or cells: E. coli BL21 Gold (DE3)
T2 sequence (Q14160 719-829): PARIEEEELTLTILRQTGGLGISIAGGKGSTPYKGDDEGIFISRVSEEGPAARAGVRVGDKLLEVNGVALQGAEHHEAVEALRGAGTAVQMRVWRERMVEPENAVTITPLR
Method: as §1, §2, §3, §4

DLG1 PDZ1 = assay: Phosphomimetic ProP-PD selection with NGS; assay type: binding, human; conditions: mean of selections 1-3, bait DLG1 PDZ1; for Mean fraction #NGS counts mimetic peptide / total count selection: phosphomimetic peptide; for Mean fraction #NGS counts wt peptide / total counts selection: wild type peptide
Method: as §1, §2, §3, §4

Scribble PDZ2 = assay: Phosphomimetic ProP-PD selection with NGS; assay type: binding, human; conditions: bait Scribble PDZ2
Method: as §1, §2, §3, §4

Scribble PDZ3 = assay: Phosphomimetic ProP-PD selection with NGS; assay type: binding, human; conditions: bait Scribble PDZ3
Method: as §1, §2, §3, §4

Scribble PDZ1 [2] = biological target: T2, Scribble PDZ1; assay: Pre-phosphorylation ProP-PD: wild-type library treated with RPS6KA1 or not, selection with NGS; assay type: binding; conditions: for Phosphorylated selection Mean fraction: Pre-phosphorylation with RPS6KA1; for Phosphorylated selection Mean fraction / Unphosphorylated selection Mean fraction: mean of the two selections, bait Scribble PDZ1; for Unphosphorylated selection Mean fraction: Without Kinase
Method: For pre‐phosphorylation of the wild‐type ProP‐PD library, we obtained activated RPS6KA1 (Thermo Fisher). The time and amount of kinase required to phosphorylate the ProP‐PD library were tested in a phosphorylation assay.
as §1, §2
• Precipitate the naive wild‐type phage library (as described above, 1.8 × 10^10 cfu phage per selection). • Resuspend the precipitated phage pellets in 100 μl Kinase buffer per selection and add ATP (100 μM final concentration) and RPS6KA1 (500 ng/ml) to the phage solution. In parallel, prepare a negative control where only ATP is added to the phage pool. • Incubate the phosphorylation reaction for 2 h at room temperature. Stop the reaction through PEG/NaCl precipitation (as described above). • Resuspend the phage pool in 100 μl HBS.
During the 4 days of pre‐phosphorylation ProP‐PD selections, the input phage library of each day of selection was subjected to phosphorylation prior to phage selection.
as §3

DLG1 PDZ3 = assay: Phosphomimetic ProP-PD selection with NGS; assay type: binding, human; conditions: mean of selections 1-3; bait DLG1 PDZ3
Method: as §1, §2, §3, §4

[3] = mean of selections 1 and 2 (selection 3 empty)

Phosphorylated selection Mean fraction (Scribble PDZ1 [2]): 0
Unphosphorylated selection Mean fraction (Scribble PDZ1 [2]): 2.348e-5
Substance: RSRSISTDV [FAM163B]

Phosphorylated selection Mean fraction (Scribble PDZ1 [2]): 0.05157
Unphosphorylated selection Mean fraction (Scribble PDZ1 [2]): 0.03077
Substance: SARLWETSI [ADAM22]

Phosphorylated selection Mean fraction (Scribble PDZ1 [2]): 0
Unphosphorylated selection Mean fraction (Scribble PDZ1 [2]): 1.381e-5
Substance: SRDRKETSI [RALBP1]

Phosphorylated selection Mean fraction (Scribble PDZ1 [2]): 2.797e-5
Unphosphorylated selection Mean fraction (Scribble PDZ1 [2]): 9.668e-6
Substance: TALKVMTMV [DACT2]

Phosphorylated selection Mean fraction (Scribble PDZ1 [2]): 3.213e-5
Unphosphorylated selection Mean fraction (Scribble PDZ1 [2]): 3.175e-5
Substance: TKGISITSI [GNRHR2]

Mean fraction #NGS counts mimetic peptide / total count selection (DLG1 PDZ2): 0.0007019
Mean fraction #NGS counts mimetic peptide / total count selection (Scribble PDZ1 [1]): 0.8115
Substance: TMFLRETEL
Mean fraction #NGS counts mimetic peptide / total count selection (DLG1 PDZ1): 0.002709
Mean fraction #NGS counts mimetic peptide / total count selection (Scribble PDZ2; mean over selections): 0.1922
Mean fraction #NGS counts mimetic peptide / total count selection (Scribble PDZ3; mean over selections 1-3): 0.4954

Mean fraction #NGS counts wt peptide / total counts selection (DLG1 PDZ2): 0.0002151
Mean fraction #NGS counts wt peptide / total counts selection (Scribble PDZ1 [1]): 0.01417
Substance: TMFLRETSL
Mean fraction #NGS counts wt peptide / total counts selection (DLG1 PDZ1): 0.0004495
Mean fraction #NGS counts wt peptide / total counts selection (Scribble PDZ2; mean over selections): 0.008166
Mean fraction #NGS counts wt peptide / total counts selection (Scribble PDZ3; mean over selections 1-3): 0.0186

Phosphorylated selection Mean fraction (Scribble PDZ1 [2]): 0.5527
Unphosphorylated selection Mean fraction (Scribble PDZ1 [2]): 0.1808
Substance: TMFLRETSL [GUCY1A2]

Mean fraction #NGS counts mimetic peptide / total count selection (DLG1 PDZ2): 5.021e-5
Substance: VVHTPETEV
Mean fraction #NGS counts mimetic peptide / total count selection (DLG1 PDZ1): 0.0004495
Mean fraction #NGS counts mimetic peptide / total count selection (Scribble PDZ2; mean over selections): 0.0009495
Mean fraction #NGS counts mimetic peptide / total count selection (Scribble PDZ3; mean of selections 1-3, phosphomimetic peptide): 1.817e-5

Mean fraction #NGS counts wt peptide / total counts selection (DLG1 PDZ2): 0.0005284
Substance: YPGSPDSWV
Mean fraction #NGS counts wt peptide / total counts selection (DLG1 PDZ1): 3.476e-5
Mean fraction #NGS counts wt peptide / total counts selection (Scribble PDZ2; [3]): 0.2284

Further lines, the substance ahead of its results:

Substance: RSRSIETDV
Mean fraction #NGS counts mimetic peptide / total count selection (DLG1 PDZ2): 0.009109
Mean fraction #NGS counts mimetic peptide / total count selection (Scribble PDZ1 [1]): 0.0006725
Mean fraction #NGS counts mimetic peptide / total count selection (DLG1 PDZ1): 0.001793
Mean fraction #NGS counts mimetic peptide / total count selection (Scribble PDZ2; [3]): 0.06648
Mean fraction #NGS counts mimetic peptide / total count selection (Scribble PDZ3; mean over selections 1-3): 0.001306

Substance: SIDLWETAL [SLC15A5]
Phosphorylated selection Mean fraction (Scribble PDZ1 [2]): 0.0004582
Unphosphorylated selection Mean fraction (Scribble PDZ1 [2]): 1.656e-5

Substance: SRDRKEESI
Mean fraction #NGS counts mimetic peptide / total count selection (DLG1 PDZ2): 0
Mean fraction #NGS counts mimetic peptide / total count selection (DLG1 PDZ3): 5.904e-6
Mean fraction #NGS counts mimetic peptide / total count selection (Scribble PDZ3; mean over selections 1-3): 2.019e-6

Substance: SRDRKETSI
Mean fraction #NGS counts wt peptide / total counts selection (DLG1 PDZ2): 0.0004401
Mean fraction #NGS counts wt peptide / total counts selection (DLG1 PDZ3): 0.002721
Mean fraction #NGS counts wt peptide / total counts selection (Scribble PDZ3; mean over selections 1-3): 0.00255

Substance: TIKLKTSFF
Mean fraction #NGS counts wt peptide / total counts selection (DLG1 PDZ2; wild type peptide): 4.36e-5
Mean fraction #NGS counts wt peptide / total counts selection (DLG1 PDZ1): 0
Mean fraction #NGS counts wt peptide / total counts selection (DLG1 PDZ3): 3.092e-5
Mean fraction #NGS counts wt peptide / total counts selection (Scribble PDZ3; mean over selections 1-3): 4.802e-5

Substance: TMFLRETSL‐coo‐
proportion of NGS counts, pre‐phosphorylated library relative to unphosphorylated library (fold) (Scribble PDZ1 [2]; phage-displayed peptide, library treated with RPS6KA1, selection against Scribble PDZ1, n = 2): 3 ×

Substance: TNSSSYEHI
Mean fraction #NGS counts mimetic peptide / total count selection (DLG1 PDZ3): 0

Substance: TNSSSYSHI
Mean fraction #NGS counts wt peptide / total counts selection (DLG1 PDZ3): 0.001855

Substance: VWLRKETRV [CYSLTR2]
Phosphorylated selection Mean fraction (Scribble PDZ1 [2]): 7.3245e-6
Unphosphorylated selection Mean fraction (Scribble PDZ1 [2]): 0

Substance: YEPSMEMSV
Mean fraction #NGS counts mimetic peptide / total count selection (DLG1 PDZ3): 0.001067

Substance: YSPSMTMSV
Mean fraction #NGS counts wt peptide / total counts selection (DLG1 PDZ3): 7.133e-5
